Our source for the MBC and MIC values is article PMC6155255, “Synthetic Peptides Derived from Bovine Lactoferricin Exhibit Antimicrobial Activity against E. coli ATCC 11775, S. maltophilia ATCC 13636 and S. enteritidis ATCC 13076” (Molecules : A Journal of Synthetic Chemistry and Natural …, 2017).

For experiment [1], the system named is S. enteritidis ATCC 13076. It counts as cell-based, Salmonella enteritidis. The protocol:
(§1) The MIC and MBC were determined using a microdilution assay. In brief, bacterial strains were incubated for 18 to 24 h at 37 °C in an MH broth until an optical density of 0.15 to 0.30 (620 nm) was obtained. 90 µL of Mueller-Hinton broth (MHB) were mixed with 90 µL of peptide (440 µg/mL), and using a 96-well microtiter plate peptide, serial dilution (200, 100, 50, 25, 12.5, and 6.2 µg/mL) was performed. 10 µL of inoculum (2 × 10^6 CFU/mL) was added to each well. Final volume in each well was 100 µL. Then they were incubated for 24 h at 37 °C; and the absorbance at 620 nm was measured using an Asys Expert Plus ELISA reader. To determine the MBC, an aliquot was taken from each well and was spread onto a MHA plate. After 24 h at 37 °C, the CFU/mL was determined. Each of these tests was performed twice.

Experiment [2] deals with S. maltophilia ATCC 13636. The experiment is classed as cell-based, Stenotrophomonas maltophilia. The protocol: as §1
The subject of experiment [3] is E. coli ATCC 11775. The experiment is classed as cell-based, Escherichia coli. The method, then:
as §1

Experiment [4] deals with E. coli K88. Also noted: method as in PMID 11248238, PMID 21607695, doi:10.1002/(SICI)1099-1387(199901)5:1<32::AID-PSC172>3.0.CO. As to conditions: cited from earlier work.
In experiment [5] the test system is E. coli ATCC 25922. As to conditions: cited from earlier work. The method, then: This apparent discrepancy could be related to the method used for determining the MIC [46, 47]. The antibacterial activity of LfcinB against E. coli IID861 was determined using the microdilution method with Mueller-Hinton broth (MIC = 50 µg/mL) or peptone-based broth (MIC = 6 µg/mL). […] Antibacterial activity against E. coli ATCC 25922 has also been reported, s ...

Experiment [6] concerns E. coli ATCC 25922.
The mark [7] stands for this setting: S. enteritidis ATCC 13076, aliquot of each well spread on MHA plate, 24 h at 37 °C, CFU/mL, performed twice.
[8] abbreviates: S. enteritidis ATCC 13076, microdilution, Mueller-Hinton broth, 24 h at 37 °C, absorbance 620 nm, 6.2-200 µg/mL tested, performed twice.
Where [9] appears, read: S. maltophilia ATCC 13636, aliquot of each well spread on MHA plate, 24 h at 37 °C, CFU/mL, performed twice.
Setting [10] is: S. maltophilia ATCC 13636, microdilution, Mueller-Hinton broth, 24 h at 37 °C, absorbance 620 nm, 6.2-200 µg/mL tested, performed twice.
[11] abbreviates: E. coli ATCC 11775, aliquot of each well spread on MHA plate, 24 h at 37 °C, CFU/mL, performed twice.
[12] abbreviates: E. coli ATCC 11775, microdilution, Mueller-Hinton broth, 24 h at 37 °C, absorbance 620 nm, 6.2-200 µg/mL tested, performed twice.
The mark [13] stands for this setting: E. coli ATCC 11775, value in brackets (µM), aliquot spread on MHA plate, 24 h at 37 °C, performed twice.
Setting [14] is: E. coli ATCC 11775, value in brackets (µM), microdilution, Mueller-Hinton broth, 24 h at 37 °C, performed twice.

Read-outs that look alike come from different tables or passages of the source. Positions of bridges follow the written chain, without caps; N, C: chain ends. Non-standard residues stand in square brackets, D forms with d. Residues, ends and D or L forms follow the SMILES beside them. Chains are numbered I, II in the order given. No end group written: not given here. Ahx = NCCCCCC(=O)O Where only a bound is given, the exact number is not on record here.

For orientation: MBC means the smallest concentration meeting the test's criterion for killing. A lower MBC goes with more potent killing. One may read the MIC as the smallest concentration in the dilution series that meets the test's criterion for growth inhibition. Turning to `CSCC[C@H](NC(=O)[C@H](CCCNC(=N)N)NC(=O)[C@H](Cc1c[nH]c2ccccc12)NC(=O)[C@H](CCC(N)=O)NC(=O)[C@H](Cc1c[nH]c2ccccc12)NC(=O)[C@H](CCCNC(=N)N)NC(=O)[C@H](CCCNC(=N)N)NC(=O)[C@H](CS)NC(=O)[C@H](CCCCN)NC(=O)[C@@H](N)Cc1ccccc1)C(=O)N[C@@H](CCCCN)C(=O)N[C@@H](CCCCN)C(=O)N[C@@H](CC(C)C)C(=O)NCC(=O)N[C@@H](C)C(N)=O` [LfcinB 17–31], the MBC is given as 100 µM in experiment [1] (ATCC 13076, 24 h); 200 µg/mL in experiment [1] (setting [7]); above 100 µM in experiment [2] (ATCC 13636, 24 h); above 200 µg/mL in experiment [2] (setting [9]); 13 µM in experiment [3] (ATCC 11775, 24 h); 25 µg/mL in experiment [3] (setting [11]). Moreover, the MBC in experiment [3] (setting [13]) is recorded as 12.5 µM. Moreover, the MIC in experiment [1] (ATCC 13076, 24 h) is recorded as above 100 µM; in experiment [1] (setting [8]), above 200 µg/mL; in experiment [2] (ATCC 13636, 24 h), above 100 µM; in experiment [2] (setting [10]) it was above 200 µg/mL; in experiment [3] (ATCC 11775, 24 h) it was 13 µM; in experiment [3] (setting [12]) it was 25 µg/mL. Further, the minimum inhibitory concentration (MIC) in experiment [3] (setting [14]) is 12.5 µM.

Turning to `N=C(N)NCCC[C@H](NC(=O)[C@H](Cc1c[nH]c2ccccc12)NC(=O)[C@H](CCC(N)=O)NC(=O)[C@H](Cc1c[nH]c2ccccc12)NC(=O)[C@H](CCCNC(=N)N)NC(=O)[C@@H](N)CCCNC(=N)N)C(=O)NCCCC[C@H](NC(=O)[C@H](CCCNC(=N)N)NC(=O)[C@H](Cc1c[nH]c2ccccc12)NC(=O)[C@H](CCC(N)=O)NC(=O)[C@H](Cc1c[nH]c2ccccc12)NC(=O)[C@H](CCCNC(=N)N)NC(=O)[C@@H](N)CCCNC(=N)N)C(=O)NCCCCCC(N)=O` [LfcinB (20–25)2] (I: H-RRWQWRK[Ahx]-NH2 / II: H-RRWQWR; amide I:7-II:C), the MBC came to 5.6 µM in experiment [1] (ATCC 13076, 24 h); 12.5 µg/mL in experiment [1] (setting [7]); 22.4 µM in experiment [2] (ATCC 13636, 24 h); 50 µg/mL in experiment [2] (setting [9]); 3 µM in experiment [3] (ATCC 11775, 24 h); 6.2 µg/mL in experiment [3] (setting [11]). In experiment [3] (setting [13]), this compound displayed an MBC of 2.8 µM. The MIC in experiment [1] (ATCC 13076, 24 h) turned out to be 6 µM; in experiment [1] (setting [8]), 12.5 µg/mL; in experiment [1] (S. enteritidis ATCC 13076, value in brackets (µM), microdilution, Mueller-Hinton broth, 24 h at 37 °C, performed twice) it was 5.6 µM; in experiment [2] (ATCC 13636, 24 h) it was 22.4 µM; in experiment [2] (setting [10]) it was 50 µg/mL; in experiment [3] (ATCC 11775, 24 h), 3 µM. Moreover, the results for the MIC in experiment [3] (setting [12]) and in experiment [3] (setting [14]) were 6.2 µg/mL and 2.8 µM, respectively.

Turning to `N=C(N)NCCC[C@H](NC(=O)[C@H](Cc1c[nH]c2ccccc12)NC(=O)[C@H](CCC(N)=O)NC(=O)[C@H](Cc1c[nH]c2ccccc12)NC(=O)[C@H](CCCNC(=N)N)NC(=O)[C@@H](N)CCCNC(=N)N)C(=O)NCCCC[C@H](NC(=O)[C@H](CCCNC(=N)N)NC(=O)[C@H](Cc1c[nH]c2ccccc12)NC(=O)[C@H](CCC(N)=O)NC(=O)[C@H](Cc1c[nH]c2ccccc12)NC(=O)[C@H](CCCNC(=N)N)NC(=O)[C@@H](N)CCCNC(=N)N)C(=O)NCCCCCC(=O)N[C@@H](CSSC[C@H](NC(=O)CCCCCNC(=O)[C@H](CCCCNC(=O)[C@H](CCCNC(=N)N)NC(=O)[C@H](Cc1c[nH]c2ccccc12)NC(=O)[C@H](CCC(N)=O)NC(=O)[C@H](Cc1c[nH]c2ccccc12)NC(=O)[C@H](CCCNC(=N)N)NC(=O)[C@@H](N)CCCNC(=N)N)NC(=O)[C@H](CCCNC(=N)N)NC(=O)[C@H](Cc1c[nH]c2ccccc12)NC(=O)[C@H](CCC(N)=O)NC(=O)[C@H](Cc1c[nH]c2ccccc12)NC(=O)[C@H](CCCNC(=N)N)NC(=O)[C@@H](N)CCCNC(=N)N)C(N)=O)C(N)=O` [LfcinB (20–25)4] (I: H-RRWQWRK[Ahx]C-NH2 / II: H-RRWQWRK[Ahx]C-NH2 / III: H-RRWQWR / IV: H-RRWQWR; amide I:7-III:C, II:7-IV:C; disulfide I:9-II:9), the MBC in experiment [1] (ATCC 13076, 24 h) is given as 22 µM; in experiment [1] (setting [7]), 100 µg/mL; in experiment [2] (ATCC 13636, 24 h) it was 44 µM; in experiment [2] (setting [9]) it was 200 µg/mL; in experiment [3] (ATCC 11775, 24 h), 5 µM; in experiment [3] (setting [11]) it was 25 µg/mL. The compound also had a minimal bactericidal concentration (MBC) in experiment [3] (setting [13]) of 5.5 µM. Also, the minimum inhibitory concentration (MIC) in experiment [1] (ATCC 13076, 24 h) is 44 µM; in experiment [1] (setting [8]) it was 200 µg/mL; in experiment [2] (ATCC 13636, 24 h), above 44 µM; in experiment [2] (setting [10]) it was above 200 µg/mL; in experiment [3] (ATCC 11775, 24 h), 5 µM; in experiment [3] (setting [12]) it was 25 µg/mL. In experiment [3] (setting [14]), this compound had an MIC of 5.5 µM.

On to `N=C(N)NCCC[C@@H]1NC(=O)[C@H](Cc2c[nH]c3ccccc23)NC(=O)[C@H](CCC(N)=O)NC(=O)[C@H](Cc2c[nH]c3ccccc23)NC(=O)[C@H](CCCNC(=N)N)NC(=O)[C@H](CCCNC(=N)N)NC(=O)[C@@H](N)CSSC[C@@H](C(N)=O)NC(=O)CCCCCNC1=O` [LfcinB (20–25)Cyc] (H-CRRWQWR[Ahx]C-NH2; disulfide 1-9; N-terminus assumed), for which the MBC in experiment [1] (ATCC 13076, 24 h) came out at 42 µM; in experiment [1] (setting [7]), 50 µg/mL; in experiment [2] (ATCC 13636, 24 h), 200 µg/mL; in experiment [3] (ATCC 11775, 24 h) it was 19 µM; in experiment [3] (setting [11]) it was 25 µg/mL; in experiment [3] (setting [13]), 21 µM. Further, the MIC in experiment [1] (ATCC 13076, 24 h) was found to be 42 µM; in experiment [1] (setting [8]), 50 µg/mL; in experiment [2] (ATCC 13636, 24 h), 200 µg/mL; in experiment [3] (ATCC 11775, 24 h) it was 19 µM; in experiment [3] (setting [12]) it was 25 µg/mL; in experiment [3] (setting [14]), 21 µM.

“FKCRRWAQRWRMKKLGAPSITCVRRAF [synthetic peptide homolog to LfcinB, 27 residues, from the literature]”: the MIC was 64 µg/mL in experiment [4] and 30 µg/mL in experiment [5].

For the compound “KCRRWAQRWRMKKLGAPSITCVR [shorter peptide, 23 residues, from the literature]”, the MIC in experiment [5] is listed as 30 µg/mL.

In the case of RRWQWR-NH2 [LfcinB 20–25], the MBC in experiment [1] (ATCC 13076, 24 h) is listed as 102 µM; in experiment [2] (ATCC 13636, 24 h), above 203 µM; in experiment [3] (ATCC 11775, 24 h), 13 µM. Moreover, the MIC in experiment [1] (ATCC 13076, 24 h) was 102 µM; in experiment [2] (ATCC 13636, 24 h), above 203 µM; in experiment [3] (ATCC 11775, 24 h) it was 13 µM.

As to RWQWRWQWR-NH2 [LfcinB 21–25Pal], the MBC in experiment [1] (ATCC 13076, 24 h) came out at 17 µM; in experiment [2] (ATCC 13636, 24 h), 136 µM; in experiment [3] (ATCC 11775, 24 h) it was 8 µM. For the same compound, the MIC in experiment [1] (ATCC 13076, 24 h) is reported as 17 µM; in experiment [2] (ATCC 13636, 24 h), above 136 µM; in experiment [3] (ATCC 11775, 24 h) it was 8 µM; in experiment [6] it was 40 µg/mL.

RWRWR: the MIC in experiment [5] (palindromic sequences) was 200 µg/mL.

Consider WRWRW, for which the MIC in experiment [5] (palindromic sequences) is 15 µg/mL.

On to WRYRW, for which the MIC in experiment [5] (palindromic sequences) is on record as 100 µg/mL.
